Laboratory results: patent publication US20220401407A1, “REGULATION OF THE SLEEP/WAKE CYCLE USING C[…]” (Demetrix, Inc., priority 2021, published 2022)
Entries after “also recorded” stand apart in the source; their conditions may differ.

What was measured:
Assay type in all cases: cell-based
HCRTR1 [1] = biological target: T1, HCRTR1 (Homo sapiens, UniProt O43613); assay: PathHunter β-Arrestin GPCR agonist assay, HCRTR1; parameters: concentration or dose not given beside the values; conditions: agonist mode; Orexin A as control
T1 sequence (O43613 1-425): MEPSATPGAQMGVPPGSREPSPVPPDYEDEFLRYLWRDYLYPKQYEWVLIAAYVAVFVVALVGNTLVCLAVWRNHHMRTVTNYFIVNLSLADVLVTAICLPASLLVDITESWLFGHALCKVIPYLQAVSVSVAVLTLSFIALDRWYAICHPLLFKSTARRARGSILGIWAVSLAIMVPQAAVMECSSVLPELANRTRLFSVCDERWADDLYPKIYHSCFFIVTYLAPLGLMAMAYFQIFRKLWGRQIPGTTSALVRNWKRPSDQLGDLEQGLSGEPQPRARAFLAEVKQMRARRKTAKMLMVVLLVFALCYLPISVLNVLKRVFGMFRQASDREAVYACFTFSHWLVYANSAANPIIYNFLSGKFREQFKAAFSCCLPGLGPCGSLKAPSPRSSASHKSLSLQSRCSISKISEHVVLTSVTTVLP
Protocol: (§1) To evaluate the role specific cannabinoid compounds may play on the sleep/wake cycle, a GPCR reactivity assay was performed to determine the reactivity of 19 cannabinoid compounds to the orexin receivers HCRTR1 and HCRTR2. The evaluated cannabinoid compounds were: CBN, THCV, CBDVA, CBG, CBL, CBC, CBDV, CBDA, CBD, CBGA, (+)-CBD, CBG-C4, CBD-C1, CBD-C2, CBGV, CBGA-C4, CBGVA, CBCA, and CBLA. Orexin A was used as the control for HCRTR1 and HCRTR2.
(§2) To perform the GPCR reactivity assay, a commercial GPCR assay, PathHunter® β-Arrestin from Eurofins DiscoverX Products (Fremont, Calif.), was used. […] At activation of the GPCR receptor and recruitment of β-arrestin, complementation of the peptide fragments occurs and restores β-galactosidase activity. The amount of β-galactosidase activity is then measurable using chemiluminescent reagents.
(§3) A total of four assays were run. Agonist assays were run for each of HCRTR1 and HCRTR2 and antagonist assays were run for HCRTR1 and HCRTR2. In each of the two agonist assays, PathHunter® cell lines were removed from a freezer stock and seeded at a volume of 20 μL into white walled, 384-well microplates and incubated at 37° C. Each cell was incubated with a sample to induce a response and then diluted to generate a 5× sample in assay buffer. 5 μL of the 5× sample was then added to cells and incubated at 37° C. for 90 or 180 minutes. The final assay concentration was 1%. The assay signal was generated through addition of 12.5 μL or 15 μL (50% V/V) of a detection reagent cocktail followed by a one hour incubation time at room temperature. Microplates were read following signal generation with a PerkinElmer Envision™ (PerkinElmer Inc., Waltham, Mass.) for chemiluminescent signal detection. Reactivity was analyzed using the CBIS data analysis suite (ChemInnovation, CA) where RLU refers to the raw measured values. The percent activity was then calculated using the formula: % Activity=100%*(mean RLU of test sample−mean RLU of control)/(mean max control ligand−mean RLU of vehicle control).
(§4) For agonist activity, the percent activity is depicted while for antagonist activity, the percent inhibition is depicted.

HCRTR2 [2] = biological target: T2, HCRTR2 (Homo sapiens, UniProt O43614); assay: PathHunter β-Arrestin GPCR agonist assay, HCRTR2; parameters: concentration or dose not given beside the values; conditions: agonist mode; Orexin A as control
T2 sequence (O43614 1-444): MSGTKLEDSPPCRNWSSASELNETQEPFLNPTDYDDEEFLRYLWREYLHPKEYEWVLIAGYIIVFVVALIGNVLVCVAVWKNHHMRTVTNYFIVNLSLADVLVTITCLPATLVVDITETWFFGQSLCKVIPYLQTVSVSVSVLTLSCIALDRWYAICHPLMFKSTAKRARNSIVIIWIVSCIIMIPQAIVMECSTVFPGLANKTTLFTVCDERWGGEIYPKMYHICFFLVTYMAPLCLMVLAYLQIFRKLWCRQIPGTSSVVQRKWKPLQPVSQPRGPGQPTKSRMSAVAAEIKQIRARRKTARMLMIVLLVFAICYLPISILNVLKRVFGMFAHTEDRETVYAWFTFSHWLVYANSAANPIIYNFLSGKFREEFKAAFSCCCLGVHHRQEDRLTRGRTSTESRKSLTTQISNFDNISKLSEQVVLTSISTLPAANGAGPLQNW
Protocol: as §1, §2, §3, §4

dopamine receptor DRD5 = dopamine receptor DRD5 (Homo sapiens, UniProt P21918); assay: PathHunter β-Arrestin GPCR agonist assay, DRD5; parameters: DRD5 (Agonist) percent activity: concentration or dose not given beside the values; conditions: for DRD5 (Agonist) percent activity: agonist mode, dopamine as control
Sequence of dopamine receptor DRD5 (P21918 whole entry): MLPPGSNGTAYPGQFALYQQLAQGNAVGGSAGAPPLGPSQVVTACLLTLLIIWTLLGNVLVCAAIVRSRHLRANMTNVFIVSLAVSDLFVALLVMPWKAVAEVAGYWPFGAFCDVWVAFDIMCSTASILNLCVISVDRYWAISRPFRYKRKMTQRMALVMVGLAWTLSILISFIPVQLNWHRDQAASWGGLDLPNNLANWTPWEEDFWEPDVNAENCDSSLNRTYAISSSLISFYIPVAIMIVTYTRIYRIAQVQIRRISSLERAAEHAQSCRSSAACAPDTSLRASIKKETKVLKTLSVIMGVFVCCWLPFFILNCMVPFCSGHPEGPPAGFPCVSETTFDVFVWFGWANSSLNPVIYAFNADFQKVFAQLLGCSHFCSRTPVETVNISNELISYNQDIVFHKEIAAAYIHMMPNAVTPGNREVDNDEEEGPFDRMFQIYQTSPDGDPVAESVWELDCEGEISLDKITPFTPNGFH
Source text: as §2, §3
Table 2 depicts the results of evaluating the cannabinoid compounds to act as an agonist for the dopamine receptor DRD5. The same experimental procedure as used for HCRTR1 and HCRTR2 agonist testing (Table 1) was followed with the substitution of dopamine as the control for the DRD5 receptor.

HCRTR2 [3] = biological target: T2, HCRTR2; assay: PathHunter β-Arrestin GPCR antagonist assay, HCRTR2; conditions: for HCRTR2 (Antagonist) percent inhibition: antagonist mode, agonist challenge at EC80
Protocol: as §1, §2
(§5) In each of the two antagonist assays, PathHunter® cell lines were removed from a freezer stock and seeded at a volume of 20 μL into white walled, 384-well microplates and incubated at 37° C. Each cell was pre-incubated with an antagonist followed by an agonist challenge at the EC80 concentration. Cells were then diluted to generate a 5× sample in assay buffer. 5 μL of the 5× sample was then added to cells and incubated at 37° C. for 30 minutes. Finally, 5 μL of 6×EC80 agonist in assay buffer were added to the cells and incubated at 37° C. for 90 minutes or 180 minutes. The assay signal was generated through addition of 12.5 μL or 15 μL (50% V/V) of a detection reagent cocktail followed by a one hour incubation time at room temperature. Microplates were read following signal generation with a PerkinElmer Envision™ (PerkinElmer Inc., Waltham, Mass.) for chemiluminescent signal detection. Reactivity was analyzed using the CBIS data analysis suite (ChemInnovation, CA) where RLU refers to the raw measured values. The percent inhibition was calculated using the formula: % Inhibition=100%*(1−mean RLU of test sample−mean RLU of control)/(mean RLU of EC80 control−mean RLU of vehicle control).
as §4

HCRTR1 [4] = biological target: T1, HCRTR1; assay: PathHunter β-Arrestin GPCR antagonist assay, HCRTR1; conditions: for HCRTR1 (Antagonist) percent inhibition: antagonist mode, agonist challenge at EC80
Protocol: as §1, §2, §5, §4

Row | Molecule | HCRTR1 (Agonist) percent activity (HCRTR1 [1]) [%] | HCRTR2 (Agonist) percent activity (HCRTR2 [2]) [%] | DRD5 (Agonist) percent activity (dopamine receptor DRD5) [%] | antagonist effect on HCRTR2 (in words) (HCRTR2 [3]) | HCRTR2 (Antagonist) percent inhibition (HCRTR2 [3]) [%] | antagonist effect on HCRTR1 (in words) (HCRTR1 [4]) | HCRTR1 (Antagonist) percent inhibition (HCRTR1 [4]) [%] | DRD5 agonist effect (in words) (dopamine receptor DRD5)
1 | CCCCCc1cc2c(c(O)c1C(=O)O)C=CC(C)(CCC=C(C)C)O2 (centres unmarked) [CBCA, cannabichromenic acid] | 3 | 1 | 1 | do not demonstrate meaningful activity | 17 | do not demonstrate meaningful activity | 12 | –
2 | CCCc1cc(O)c2c(c1)OC(C)(C)[C@@H]1CCC(C)=C[C@@H]21 [THCV, tetrahydrocannabivarin] | 2 | 6 | 52 | antagonist effect; also recorded: acted as an antagonist | 89 | antagonist effect; also recorded: acted as an antagonist | 89 | DRD5 agonists; also recorded: stronger agonist effects
3 | C=C(C)[C@@H]1CCC(C)=C[C@H]1c1c(O)cc(CCCCC)cc1O [CBD, cannabidol] | 1 | 5 | 27 | antagonist effect; also recorded: acted as an antagonist | 85 | antagonist effect; also recorded: acted as an antagonist | 96 | –
4 | CCCCCc1cc(O)c(C/C=C(\C)CCC=C(C)C)c(O)c1C(=O)O [CBGA, cannabigerolic acid] | 1 | 1 | 0 | do not demonstrate meaningful activity | 14 | do not demonstrate meaningful activity | 8 | –
5 | CCCc1cc(O)c(C/C=C(\C)CCC=C(C)C)c(O)c1C(=O)O [CBGVA, cannabigerovarinic acid] | 0 | 1 | 0 | do not demonstrate meaningful activity | 12 | do not demonstrate meaningful activity | 3 | –
6 | (+)-cannabidiol [(+)-CBD] | 3 | 8 | 9 | antagonist effect; also recorded: acted as an antagonist | 80 | antagonist effect; also recorded: acted as an antagonist | 97 | –
7 | C=C(C)[C@@H]1CCC(C)=C[C@H]1c1c(O)cc(CC)cc1O [CBD-C2, cannabidol-C2] | 2 | 1 | 1 | do not demonstrate meaningful activity | 13 | do not demonstrate meaningful activity | 20 | –
